Data as given in patent publication EP0236477B1 (priority 1985, dated 1987).

Experiments:
[1] = Duration of opioid antagonistic activity (general statements); format: in vivo; conditions: intravenously injectable
[2] = plasma of a patient; cited from earlier work
[3] = cited from earlier work; for potency relative to naloxone: in vivo

| Structure (SMILES) | duration of antagonistic activity [1] | time a pharmacologically active concentration can remain in the plasma [2] | potency relative to naloxone [3] | potency as an antagonist relative to naltrexon ([3]; intravenous route) |
| --- | --- | --- | --- | --- |
| C=C1CC[C@@]2(O)[C@H]3Cc4ccc(O)c5c4[C@@]2(CCN3CC2CC2)[C@H]1O5 [6-methylene-6-desoxy-N-cyclopropylmethyl-14-hydroxydihydronormorphine] | at least 6 hours | three days | significantly more potent | about four times more potent |
| O=C1CC[C@@]2(O)[C@H]3Cc4ccc(O)c5c4[C@@]2(CCN3CC2CC2)[C@H]1O5 [naltrexon, reference compound] |  |  | significantly more potent |  |
